Source: publication PMC4858680, “A platinum-based hybrid drug design approach to circumvent acquired resistance to molecular targeted tyrosine kinase inhibitors” (Scientific Reports, 2016)
Read-outs that look alike come from different tables or passages of the source.

How the values were obtained:
Assay type in all cases: binding
[1] = molecular target: T1, TYK2(JH1domain-catalytic) (Homo sapiens, UniProt P29597); details: for Percent control: 10 μM; for remaining binding at 10 µM: read-out: Percent control
T1 construct: TYK2(JH1domain-catalytic); purchased DiscoveRx (KINOMEscan service)
T1 sequence (P29597 897-1176 limits assumed): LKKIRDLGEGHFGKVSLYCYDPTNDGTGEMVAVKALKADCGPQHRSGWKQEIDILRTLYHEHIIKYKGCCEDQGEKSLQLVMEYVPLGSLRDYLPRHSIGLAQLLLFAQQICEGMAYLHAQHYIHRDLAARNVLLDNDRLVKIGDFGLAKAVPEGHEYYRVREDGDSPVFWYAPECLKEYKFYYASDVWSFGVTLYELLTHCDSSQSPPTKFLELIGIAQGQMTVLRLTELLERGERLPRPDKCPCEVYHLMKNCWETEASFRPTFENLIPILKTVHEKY

[2] = molecular target: T2, BTK (Homo sapiens, UniProt Q06187); details: for remaining binding at 10 µM: read-out: Percent control
T2 construct: purchased DiscoveRx KINOMEscan

[3] = molecular target: T3, INSRR (Homo sapiens, UniProt P14616); details: for remaining binding at 10 µM: read-out: Percent control
T3 construct: purchased DiscoveRx KINOMEscan

[4] = molecular target: T4, TYK2(JHSdomain-pseudokinase) (Homo sapiens, UniProt P29597); details: for Percent control: 10 μM; for remaining binding at 10 µM: read-out: Percent control
T4 construct: TYK2(JHSdomain-pseudokinase); purchased DiscoveRx Corporation (KINOMEscan service)

[5] = molecular target: T5, FGFR4 (Homo sapiens, UniProt P22455); details: for remaining binding at 10 µM: read-out: Percent control
T5 construct: purchased DiscoveRx KINOMEscan

[6] = molecular target: T6, SRMS (Homo sapiens, UniProt Q9H3Y6); details: for remaining binding at 10 µM: read-out: Percent control
T6 construct: purchased DiscoveRx (KINOMEscan service)

[7] = molecular target: T7, JAK2(JH1domain-catalytic) (Homo sapiens, UniProt O60674); details: for Percent control: 10 μM; for remaining binding at 10 µM: read-out: Percent control
T7 construct: JAK2(JH1domain-catalytic); purchased DiscoveRx KINOMEscan

[8] = molecular target: T8, JAK3(JH1domain-catalytic) (Homo sapiens, UniProt P52333); details: for remaining binding at 10 µM: read-out: Percent control
T8 construct: JAK3(JH1domain-catalytic); purchased DiscoveRx KINOMEscan

[9] = molecular target: T9, BRK (Homo sapiens, UniProt Q13882); details: for Percent control: BRK, 10 μM; for remaining binding at 10 µM: read-out: Percent control
T9 construct: purchased DiscoveRx KINOMEscan

[10] = molecular target: T10, TXK (Homo sapiens, UniProt P42681); details: for Percent control: 10 μM; for remaining binding at 10 µM: read-out: Percent control
T10 construct: purchased DiscoveRx (KINOMEscan service)
T10 sequence (P42681 1-527): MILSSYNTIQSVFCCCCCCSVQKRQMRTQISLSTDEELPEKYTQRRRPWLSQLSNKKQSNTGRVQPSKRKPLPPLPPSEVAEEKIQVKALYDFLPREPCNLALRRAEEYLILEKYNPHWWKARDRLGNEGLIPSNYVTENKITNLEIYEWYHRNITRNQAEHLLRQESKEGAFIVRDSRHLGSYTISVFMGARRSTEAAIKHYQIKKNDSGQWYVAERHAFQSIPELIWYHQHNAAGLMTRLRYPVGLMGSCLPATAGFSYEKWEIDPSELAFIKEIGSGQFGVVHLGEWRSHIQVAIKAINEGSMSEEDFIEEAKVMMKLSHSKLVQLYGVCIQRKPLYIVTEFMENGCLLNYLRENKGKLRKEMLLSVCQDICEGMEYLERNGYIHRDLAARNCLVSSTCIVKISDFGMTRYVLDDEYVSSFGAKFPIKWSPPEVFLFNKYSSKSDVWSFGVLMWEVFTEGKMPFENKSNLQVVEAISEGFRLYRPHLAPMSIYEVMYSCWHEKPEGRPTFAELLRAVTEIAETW

[11] = molecular target: T11, TNK2 (Homo sapiens, UniProt Q07912); details: for remaining binding at 10 µM: read-out: Percent control
T11 construct: purchased DiscoveRx (KINOMEscan service)

[12] = molecular target: T12, EPHA8 (Homo sapiens, UniProt P29322); details: for remaining binding at 10 µM: read-out: Percent control
T12 construct: purchased DiscoveRx KINOMEscan
T12 sequence (P29322 28-1005): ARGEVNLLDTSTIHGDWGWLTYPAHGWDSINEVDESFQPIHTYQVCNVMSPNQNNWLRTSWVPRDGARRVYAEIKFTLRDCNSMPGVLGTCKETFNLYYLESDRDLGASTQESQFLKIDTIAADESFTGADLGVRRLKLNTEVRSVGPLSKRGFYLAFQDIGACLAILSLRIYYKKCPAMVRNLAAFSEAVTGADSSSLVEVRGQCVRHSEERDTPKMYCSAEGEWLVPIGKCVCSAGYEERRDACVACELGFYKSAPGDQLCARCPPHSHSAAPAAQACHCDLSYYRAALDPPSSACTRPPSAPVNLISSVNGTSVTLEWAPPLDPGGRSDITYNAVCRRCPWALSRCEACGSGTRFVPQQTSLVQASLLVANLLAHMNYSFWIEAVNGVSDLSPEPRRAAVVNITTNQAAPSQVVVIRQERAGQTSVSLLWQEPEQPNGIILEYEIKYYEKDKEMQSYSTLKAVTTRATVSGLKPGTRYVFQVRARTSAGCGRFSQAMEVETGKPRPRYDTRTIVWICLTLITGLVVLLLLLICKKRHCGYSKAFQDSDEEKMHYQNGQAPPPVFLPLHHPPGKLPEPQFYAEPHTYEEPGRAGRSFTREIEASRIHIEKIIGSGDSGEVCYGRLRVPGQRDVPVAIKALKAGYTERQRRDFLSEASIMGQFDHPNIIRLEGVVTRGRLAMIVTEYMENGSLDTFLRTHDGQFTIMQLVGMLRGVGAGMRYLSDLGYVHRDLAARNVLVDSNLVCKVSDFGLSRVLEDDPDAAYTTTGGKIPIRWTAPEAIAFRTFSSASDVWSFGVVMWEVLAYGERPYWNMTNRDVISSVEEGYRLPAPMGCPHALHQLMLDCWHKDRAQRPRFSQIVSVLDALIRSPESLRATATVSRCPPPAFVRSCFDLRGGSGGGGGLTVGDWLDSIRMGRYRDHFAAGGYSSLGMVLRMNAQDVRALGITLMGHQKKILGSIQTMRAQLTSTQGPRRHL

[13] = molecular target: T13, EPHA2 (Homo sapiens, UniProt P29317); details: for remaining binding at 10 µM: read-out: Percent control
T13 construct: purchased DiscoveRx KINOMEscan

[14] = molecular target: T14, PYK2 (Homo sapiens, UniProt Q14289); details: for remaining binding at 10 µM: read-out: Percent control
T14 construct: purchased DiscoveRx KINOMEscan

[15] = molecular target: T15, VEGFR2 (Homo sapiens, UniProt P35968); details: for Percent control: 10 μM; for remaining binding at 10 µM: read-out: Percent control
T15 construct: purchased DiscoveRx Corporation (KINOMEscan service)

[16] = JAK3(JH1domain-catalytic), 10 μM

T5 sequence (P22455 22-802): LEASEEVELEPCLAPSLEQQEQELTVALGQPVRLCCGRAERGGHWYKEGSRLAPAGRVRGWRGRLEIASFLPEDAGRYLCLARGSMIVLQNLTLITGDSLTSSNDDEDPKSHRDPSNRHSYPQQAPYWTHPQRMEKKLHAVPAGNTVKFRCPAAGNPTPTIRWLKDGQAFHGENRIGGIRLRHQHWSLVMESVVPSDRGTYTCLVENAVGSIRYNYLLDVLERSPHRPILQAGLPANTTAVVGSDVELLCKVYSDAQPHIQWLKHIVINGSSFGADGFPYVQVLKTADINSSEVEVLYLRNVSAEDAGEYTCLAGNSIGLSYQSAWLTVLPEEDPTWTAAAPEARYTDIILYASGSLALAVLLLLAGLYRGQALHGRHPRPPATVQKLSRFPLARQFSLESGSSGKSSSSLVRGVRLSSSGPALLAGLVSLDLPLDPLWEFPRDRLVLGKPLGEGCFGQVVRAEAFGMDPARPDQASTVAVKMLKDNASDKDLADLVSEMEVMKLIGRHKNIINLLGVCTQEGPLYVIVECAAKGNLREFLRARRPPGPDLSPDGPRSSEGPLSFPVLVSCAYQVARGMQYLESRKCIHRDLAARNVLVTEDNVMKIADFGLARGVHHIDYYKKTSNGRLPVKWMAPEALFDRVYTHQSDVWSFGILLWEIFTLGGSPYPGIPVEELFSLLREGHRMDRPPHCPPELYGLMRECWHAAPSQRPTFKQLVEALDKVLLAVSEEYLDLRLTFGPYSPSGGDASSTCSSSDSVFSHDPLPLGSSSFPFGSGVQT
T8 sequence (P52333 813-1124 limits assumed): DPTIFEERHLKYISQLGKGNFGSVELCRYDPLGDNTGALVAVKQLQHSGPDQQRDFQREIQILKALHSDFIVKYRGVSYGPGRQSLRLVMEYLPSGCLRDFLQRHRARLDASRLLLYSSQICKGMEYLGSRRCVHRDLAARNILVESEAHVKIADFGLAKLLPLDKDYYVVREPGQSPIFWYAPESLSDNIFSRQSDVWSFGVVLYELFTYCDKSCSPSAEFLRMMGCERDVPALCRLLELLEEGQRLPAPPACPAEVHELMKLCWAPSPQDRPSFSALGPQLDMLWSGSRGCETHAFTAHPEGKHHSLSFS
T13 sequence (P29317 24-976): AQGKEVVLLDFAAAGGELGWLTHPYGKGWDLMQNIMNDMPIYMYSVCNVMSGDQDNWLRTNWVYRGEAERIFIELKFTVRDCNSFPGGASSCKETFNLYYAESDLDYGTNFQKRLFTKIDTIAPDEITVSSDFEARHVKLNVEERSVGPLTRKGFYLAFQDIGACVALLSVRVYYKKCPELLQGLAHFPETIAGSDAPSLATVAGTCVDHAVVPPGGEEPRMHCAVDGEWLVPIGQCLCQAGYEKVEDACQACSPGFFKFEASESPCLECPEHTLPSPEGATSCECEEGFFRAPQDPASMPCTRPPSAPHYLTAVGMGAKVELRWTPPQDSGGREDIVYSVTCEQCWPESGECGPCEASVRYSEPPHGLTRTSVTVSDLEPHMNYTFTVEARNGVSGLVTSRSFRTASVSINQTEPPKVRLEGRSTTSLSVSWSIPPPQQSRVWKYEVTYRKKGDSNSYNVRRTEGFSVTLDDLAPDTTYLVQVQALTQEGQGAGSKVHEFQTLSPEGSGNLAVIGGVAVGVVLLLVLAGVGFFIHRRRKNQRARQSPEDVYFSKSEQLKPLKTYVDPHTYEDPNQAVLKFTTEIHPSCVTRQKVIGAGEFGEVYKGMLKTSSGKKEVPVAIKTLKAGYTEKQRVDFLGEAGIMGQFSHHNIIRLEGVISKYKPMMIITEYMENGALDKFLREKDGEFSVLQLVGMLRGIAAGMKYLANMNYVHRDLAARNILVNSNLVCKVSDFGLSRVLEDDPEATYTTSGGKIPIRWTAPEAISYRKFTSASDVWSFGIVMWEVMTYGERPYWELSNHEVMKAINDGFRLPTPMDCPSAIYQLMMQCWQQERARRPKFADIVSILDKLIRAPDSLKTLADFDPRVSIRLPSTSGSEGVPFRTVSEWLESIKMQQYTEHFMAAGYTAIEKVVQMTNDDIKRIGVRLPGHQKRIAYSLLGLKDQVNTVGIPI
T14 sequence (Q14289 whole entry): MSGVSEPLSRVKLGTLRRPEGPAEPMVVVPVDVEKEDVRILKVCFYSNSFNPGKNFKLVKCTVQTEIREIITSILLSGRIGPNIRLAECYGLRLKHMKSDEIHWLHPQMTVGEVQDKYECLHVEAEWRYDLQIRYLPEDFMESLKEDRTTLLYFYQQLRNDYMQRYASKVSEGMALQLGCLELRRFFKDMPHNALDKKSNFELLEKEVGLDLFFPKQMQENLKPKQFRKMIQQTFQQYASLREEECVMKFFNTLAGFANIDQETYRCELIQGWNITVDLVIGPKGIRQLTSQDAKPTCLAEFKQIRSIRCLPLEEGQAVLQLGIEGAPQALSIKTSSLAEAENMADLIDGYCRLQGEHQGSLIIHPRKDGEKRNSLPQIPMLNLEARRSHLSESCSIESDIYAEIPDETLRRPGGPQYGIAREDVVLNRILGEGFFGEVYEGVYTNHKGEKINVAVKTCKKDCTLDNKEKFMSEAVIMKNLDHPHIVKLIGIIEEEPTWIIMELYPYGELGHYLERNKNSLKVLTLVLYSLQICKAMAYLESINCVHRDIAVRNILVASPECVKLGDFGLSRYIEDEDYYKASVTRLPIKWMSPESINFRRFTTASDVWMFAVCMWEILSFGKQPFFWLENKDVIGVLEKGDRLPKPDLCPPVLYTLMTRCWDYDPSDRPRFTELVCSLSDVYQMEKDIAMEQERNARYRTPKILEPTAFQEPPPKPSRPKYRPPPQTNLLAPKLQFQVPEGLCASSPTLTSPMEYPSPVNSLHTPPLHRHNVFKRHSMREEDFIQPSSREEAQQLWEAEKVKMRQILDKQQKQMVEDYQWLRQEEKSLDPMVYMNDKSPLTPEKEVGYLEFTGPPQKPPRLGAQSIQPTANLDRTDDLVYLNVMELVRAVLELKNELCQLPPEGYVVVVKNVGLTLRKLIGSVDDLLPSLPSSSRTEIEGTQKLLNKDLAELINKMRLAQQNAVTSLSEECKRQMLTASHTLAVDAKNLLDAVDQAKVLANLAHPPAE
T2 sequence (Q06187 whole entry): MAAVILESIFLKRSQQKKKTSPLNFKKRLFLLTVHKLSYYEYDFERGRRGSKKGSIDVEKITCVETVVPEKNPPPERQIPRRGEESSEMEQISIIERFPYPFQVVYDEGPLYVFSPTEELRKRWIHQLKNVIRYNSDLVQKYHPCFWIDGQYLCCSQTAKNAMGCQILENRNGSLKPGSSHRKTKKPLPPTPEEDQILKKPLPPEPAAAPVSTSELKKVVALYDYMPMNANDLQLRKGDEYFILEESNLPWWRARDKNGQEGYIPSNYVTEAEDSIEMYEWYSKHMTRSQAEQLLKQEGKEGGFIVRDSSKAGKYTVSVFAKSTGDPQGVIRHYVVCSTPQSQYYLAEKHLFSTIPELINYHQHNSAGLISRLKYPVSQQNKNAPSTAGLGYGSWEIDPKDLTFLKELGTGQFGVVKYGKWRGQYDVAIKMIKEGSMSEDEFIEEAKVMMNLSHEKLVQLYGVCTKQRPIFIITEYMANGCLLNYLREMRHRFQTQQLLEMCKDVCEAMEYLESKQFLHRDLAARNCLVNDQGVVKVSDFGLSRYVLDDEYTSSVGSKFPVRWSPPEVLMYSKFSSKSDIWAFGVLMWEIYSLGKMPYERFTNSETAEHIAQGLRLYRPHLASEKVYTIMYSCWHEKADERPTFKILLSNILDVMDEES
T6 sequence (Q9H3Y6 whole entry): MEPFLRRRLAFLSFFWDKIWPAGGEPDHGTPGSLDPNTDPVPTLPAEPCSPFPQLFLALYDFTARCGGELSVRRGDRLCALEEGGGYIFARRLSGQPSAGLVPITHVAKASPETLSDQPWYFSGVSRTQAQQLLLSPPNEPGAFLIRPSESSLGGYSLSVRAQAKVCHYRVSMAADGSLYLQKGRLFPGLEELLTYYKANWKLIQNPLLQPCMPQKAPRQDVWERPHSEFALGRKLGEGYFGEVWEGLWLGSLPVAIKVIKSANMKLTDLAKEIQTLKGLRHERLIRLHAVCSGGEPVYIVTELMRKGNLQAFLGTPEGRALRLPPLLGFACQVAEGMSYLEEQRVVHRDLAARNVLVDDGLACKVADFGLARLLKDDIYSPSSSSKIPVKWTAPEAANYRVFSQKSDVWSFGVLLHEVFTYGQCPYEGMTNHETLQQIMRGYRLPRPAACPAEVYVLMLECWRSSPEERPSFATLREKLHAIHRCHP
T4 sequence (P29597 589-875 limits assumed): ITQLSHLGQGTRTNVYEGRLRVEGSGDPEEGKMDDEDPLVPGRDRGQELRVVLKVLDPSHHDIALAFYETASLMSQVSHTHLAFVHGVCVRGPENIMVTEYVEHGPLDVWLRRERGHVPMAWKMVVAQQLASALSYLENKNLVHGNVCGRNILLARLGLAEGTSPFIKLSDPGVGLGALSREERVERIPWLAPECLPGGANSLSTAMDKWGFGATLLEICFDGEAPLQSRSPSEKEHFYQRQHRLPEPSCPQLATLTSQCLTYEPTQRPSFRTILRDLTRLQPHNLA
T9 sequence (Q13882 whole entry): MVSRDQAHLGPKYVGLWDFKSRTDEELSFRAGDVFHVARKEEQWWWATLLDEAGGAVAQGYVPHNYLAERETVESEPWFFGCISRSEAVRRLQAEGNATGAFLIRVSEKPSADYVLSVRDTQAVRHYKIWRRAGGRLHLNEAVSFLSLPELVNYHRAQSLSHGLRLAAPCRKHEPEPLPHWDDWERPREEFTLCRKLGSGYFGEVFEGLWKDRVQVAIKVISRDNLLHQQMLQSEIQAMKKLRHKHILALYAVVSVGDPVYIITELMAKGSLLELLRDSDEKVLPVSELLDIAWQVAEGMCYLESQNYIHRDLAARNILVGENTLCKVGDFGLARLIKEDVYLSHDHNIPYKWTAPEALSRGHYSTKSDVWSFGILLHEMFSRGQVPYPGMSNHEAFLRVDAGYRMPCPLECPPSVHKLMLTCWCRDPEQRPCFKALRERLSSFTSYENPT

Row | SMILES | Percent control [1] [%] | Percent control ([2]; BTK, 10 μM) [%] | Percent control ([3]; INSRR, 10 μM) [%] | Percent control [4] [%] | Percent control ([5]; FGFR4, 10 μM) [%] | Percent control ([6]; SRMS, 10 μM) [%] | Percent control [7] [%] | Percent control [8, 16] [%] | Percent control [9] [%] | Percent control [10] [%] | Percent control ([12]; EPHA8, 10 μM) [%] | Percent control ([13]; EPHA2, 10 μM) [%] | Percent control ([14]; PYK2, 10 μM) [%] | Percent control [15] [%] | Percent control ([11]; TNK2, 10 μM) [%] | remaining binding at 10 µM [1] [%] | remaining binding at 10 µM ([2]; BTK, 10 μM) [%] | remaining binding at 10 µM [4] [%] | remaining binding at 10 µM [7] [%] | remaining binding at 10 µM [9] [%] | also measured
1 | C#Cc1cccc(Nc2c3cc(OCCOC)c(OCCOC)cc3nc[n+]2[Pt@SP2-2]([NH3+])([NH3+])[Cl])c1 [2a, cisplatin-erlotinib] | 92 | 87 | 100 | 100 | 99 | 94 | 46 | 28 | 89 | 76 | 56 | 93 | 90 | 98 | – | – | – | – | – | – | Percent control [11]: 100
2 | COc1cc2c(Nc3ccc(Br)cc3F)[n+]([Pt-2]3([Cl])[NH2+]C4CCCCC4[NH2+]3)cnc2cc1OCC1CCN(C)CC1 (stereo not drawn) [3b, oxaliplatin-vandetanib] | 83 | 37 | 100 | 100 | 97 | 95 | 100 | 100 | 27 | 56 | 6.8 | 43 | 80 | 3.2 | 100 | – | – | – | – | – | –
3 | Cc1ccc(NC(=O)c2ccc(CN3CCN(C)CC3)cc2)cc1Nc1nccc(-c2cccnc2)[n+]1[Pt-2]1([Cl])[NH2+]C2CCCCC2[NH2+]1 (stereo not drawn) [1b, oxaliplatin-imatinib] | 94 | 100 | 100 | 100 | 94 | 98 | 100 | 55 | 93 | 87 | 68 | 99 | 92 | 100 | 100 | – | – | – | – | – | –
4 | COc1cc2c(Nc3ccc(Br)cc3F)ncnc2cc1OCC1CCN(C)CC1 [Vandetanib, reference compound] | – | – | – | – | – | – | – | – | – | – | – | – | – | – | – | 100 | 14.5 | 100 | 100 | 1.6 | remaining binding at 10 µM ([3]; INSRR, 10 μM): 100%; remaining binding at 10 µM ([5]; FGFR4, 10 μM): 18.7%; remaining binding at 10 µM ([6]; SRMS, 10 μM): 16%; remaining binding at 10 µM [8, 16]: 100%; remaining binding at 10 µM [10]: 27%; remaining binding at 10 µM ([11]; TNK2, 10 μM): 100%; remaining binding at 10 µM ([12]; EPHA8, 10 μM): 0.9%; remaining binding at 10 µM ([13]; EPHA2, 10 μM): 9.9%; remaining binding at 10 µM ([14]; PYK2, 10 μM): 100%; remaining binding at 10 µM [15]: 7.6%
5 | Cc1ccc(NC(=O)c2ccc(CN3CCN(C)CC3)cc2)cc1Nc1nccc(-c2cccnc2)n1 [Imatinib, reference compound] | – | – | 100 | – | 100 | 100 | – | 100 | 100 | 100 | 12.3 | 100 | 100 | 100 | 100 | 100 | 100 | 46.5 | 100 | – | –
6 | C#Cc1cccc(Nc2ncnc3cc(OCCOC)c(OCCOC)cc23)c1 [Erlotinib] | – | – | – | – | – | – | – | – | – | – | – | – | – | – | – | 100 | – | 19.4 | 27 | 100 | remaining binding at 10 µM [2]: 100%; remaining binding at 10 µM [3]: 100%; remaining binding at 10 µM [5]: 100%; remaining binding at 10 µM [6]: 100%; remaining binding at 10 µM [8]: 6.5%; remaining binding at 10 µM [10]: 27.5%; remaining binding at 10 µM ([11]; TNK2, 10 μM): 100%; remaining binding at 10 µM [12]: 8.6%; remaining binding at 10 µM [13]: 100%; remaining binding at 10 µM [14]: 100%; remaining binding at 10 µM [15]: 36.3%
